Results from patent US10564093B2, “Single injection competition assays” (Molecular Devices, LLC, priority 2015, dated 2020).

Test system: Carbonic anhydrase II enzyme
Test: SPR single injection competitive binding analysis of CBS in the presence of Furosemide
Description: The binding interaction analysis was carried out using a SPR cell having a sensing region wherein the bound ligand is Carbonic anhydrase II enzyme immobilized on the surface of the biosensor via amine coupling to ˜6500 RU. […] According to the method described above, the dispersion gradient was prepared by initially aspirating, pulling, the Furosemide into the sample holding line followed by pulling the buffer into the sample holding line. […] The dispersion gradient of CBS was prepared using 200 μl of a 2 μM of CBS and 100 μl of buffer. The dispersion gradient of CBS in buffer was prepared by initially aspirating the CBS into the sample holding line followed by pulling the buffer into the sample holding line. The resulting dispersion gradient was immediately injected at a flow rate of 50 μl/min through the SPR sensing region containing the bound ligand.
FIGS. 16-18 will be referenced with regard to the method of determining binding competitive analysis. FIG. 16 reflects the relative concentrations of analyte when performing a binding competition analysis.
In contrast, the relative concentration of CBS will increase as a dispersion gradient during the competitive analysis.
The binding response curves of FIG. 17 were prepared by injecting two samples. […]

NS(=O)(=O)c1ccc(C(=O)O)cc1 [CBS, 4-carboxy-benzenesulfonamide]
binding of CBS to the ligand in the presence of Furosemide (subtracted binding interaction curves, FIG. 18) (immobilized Carbonic anhydrase II, constant Furosemide, CBS dispersion gradient, Furosemide control curve subtracted): no binding | qualitative analysis of binding interaction curve of CBS/Furosemide dispersion gradient (FIG. 17, lines 1 and 3) (no control subtraction, curve remains substantially steady state): does not compete and does not contribute to the binding interaction
